Assay results published in US7078059B2, “Treatment of bone diseases” (Shire Holdings AG, priority 2000, dated 2006).
Values joined by “and” are separate entries in the source; they are usually repeats but may differ in a detail not shown here. Identical values can stand only once.

Key:
[1] = tested on: osteoclasts cultured on bone slices; test: In vitro bone resorption assay (osteoclasts on bovine bone slices, CrossLaps); assay type: cell-based, rat; conditions: for Relative medium CrossLaps amounts per osteoclast, replicates 1-6 / Relative medium CrossLaps amounts per osteoclast, Mean ± SD: first bone resorption assay; for Relative medium CrossLaps amounts per osteoclast, replicates 1-6 / Relative medium CrossLaps amounts per osteoclast, Mean ± SD / Relative medium CrossLaps amounts per osteoclasts, Mean ± SD / Relative medium CrossLaps amounts per osteoclasts, replicates 1-6: relative to mean of baseline group, 72 hours; for Relative medium CrossLaps amounts per osteoclast, replicates 1-6: LA number = ng/ml lanthanum in culture medium; for Relative medium CrossLaps amounts per osteoclast, replicates 1-6 / Relative medium CrossLaps amounts per osteoclast, Mean ± SD / Relative medium CrossLaps amounts per osteoclasts, Mean ± SD / Relative medium CrossLaps amounts per osteoclasts, replicates 1-6 / Combined results on bone resorption (relative medium CrossLaps per osteoclast), Mean ± SD: Control = Baseline+10 nM bafilomycin Al; for Relative medium CrossLaps amounts per osteoclasts, Mean ± SD / Relative medium CrossLaps amounts per osteoclasts, replicates 1-6: second bone resorption assay; for Combined results on bone resorption (relative medium CrossLaps per osteoclast), Mean ± SD: tables 1 and 2 combined, number 12
Source text: The method of osteoclast culture on bone slices was originally described by Boyde et al. (1984) and by Chambers et al. (1984). For cell culture, we used a method slightly modified from the original methods (Lakkakorpi et al. 1989, Lakkakorpi and Väänänen, 1991). The rate of bone resorption in the cultures was originally determined by counting the number of resorption pits on each bone or dentine slice using a microscope with phase contrast objectives (Sundquist et al. 1990). Later, the pits were visualized using Wheat Germ Agglutinin lectin that specifically binds to the resorbed area in bone (Selander et al. 1994), making it possible to quantify the total resorbed area using a microscope and computer-assisted image analysis system (Laitala and Väänänen 1994, Hentunen et al. 1995). We used a commercially available method (CrossLaps for cultures, Osteometer Biotech, Herlev, Denmark) to detect the amount of collagen cross-links released into the culture medium as an index of the bone resorption rate (Bagger et al., 1999).
The study protocol uses a method where osteoclasts are cultured on bone slices and allowed to resorb bone. The system is ideal for determining the effect of drug candidates on the bone resorbing activity of osteoclasts. Drug candidates are added into the cell cultures at the beginning of the culture period, and the osteoclasts allowed to resorb bone for 3 days. The amount of bone resorbed during the culture period is determined and compared to the amount of bone resorbed in control cultures (those cultured in the absence of drug candidates).
Transverse 0.1 mm thick slices of cortical bone were cut from the diaphysis of fresh bovine femurs (Atria Slaughterhouse, Oulu, Finland) using a low-speed diamond saw, cleaned by ultrasonication in multiple changes of sterile distilled water, and stored at 4° C. before use. Long bones were removed from 1-day-old rat pups killed by decapitation. […] The resulting suspension of dispersed cells and bone fragments was agitated using a plastic pipette. Larger fragments were allowed to sediment for a few seconds and the supernatant was seeded onto the bone slices pre-wetted in the medium. After a settling period of 30 minutes at 37° C., the bone slices were washed by dipping in fresh medium, and then transferred to wells in 24-well culture dishes containing osteoclast culture medium. The bone slices were incubated in a humidified atmosphere of 95% air and 5% carbon dioxide at 37° C. for 72 hours.
After the culture period, the amount of bone resorption was determined by measuring the amount of collagen cross-links released into the culture medium using a commercial kit (CrossLaps for cultures, Osteometer Biotech) according to the manufacturer s instructions. The number of osteoclasts in each culture was determined by microscopic counting of the amount of TRAP-positive multinuclear cells, and the results are given as the number of collagen cross-links released per one osteoclast.
In the bone resorption assay, the amount of medium CrossLaps (nM) released into the culture medium was determined and the number of osteoclasts in the corresponding cultures calculated. The medium CrossLaps amounts were divided with the osteoclast numbers in the corresponding cultures, and the results are given on Table 1 as relative medium CrossLaps amounts per osteoclasts. The relative values were obtained by dividing each individual value with the mean value of the baseline group.

[2] = tested on: mature osteoblasts; test: In vitro bone formation assay (calcium deposition into bone nodules); assay type: cell-based, mouse; conditions: LA number = ng/ml lanthanum; for Effect on bone formation activity of mature osteoblasts, in words: lanthanum (III) / lanthanum (III) ion = all concentrations tested, 100 to 15,000 ng/ml, 17-estradiol 10^−10M; for Calcium deposition, Mean ± SD / Calcium deposition, replicates 1-6 / Calcium deposition, replicates 1-4 / Calcium deposition, replicates 1-8: calcium released from bone nodules after HCl extraction; for Calcium deposition, Mean ± SD / Calcium deposition, replicates 1-6 / Calcium deposition, replicates 1-4 / Calcium deposition, replicates 1-8 / Combined results on bone formation activity of mature osteoblasts (calcium released), Mean ± SD: Control = Baseline+10^−10M 17β-estradiol; for Combined results on bone formation activity of mature osteoblasts (calcium released), Mean ± SD: tables 13 and 14 combined, number 14
Method: The activity of mature osteoblasts can be determined by quantifying their ability to form mineralized bone matrix. This is done by demineralizing the formed bone matrix, and determining the amount of calcium released. Thus, this culture system fulfills requirements of an in vitro model useful for studying the bone formation activity of mature osteoblasts. […] At the end of the culture, the amount of calcium deposited during the culture period was determined, and the amount of bone formation (calcium deposition) calculated. […] Extracts of 50 μl were complexed with 1 ml determined o-cresol-phthalein-complexon. The colorimetric reaction was determined at 570 nm in a spectrophotometer. Absolute calcium concentrations were determined by comparison with a calibrated standard provided by the vendor. In this study, the effect of lanthanum carbonate on bone formation was tested. […] The amount of bone formation was determined by measuring the amount of calcium deposited into bone nodules formed by mature osteoblasts. The results are shown as the amount of calcium released (mmol/L) from the bone nodules after HCl extraction. The baseline values are too low to show the results using relative amounts as was done in the other assays.

[3] = preliminary bone formation assay

For `O.O.O.O.O=C([O-])[O-].O=C([O-])[O-].O=C([O-])[O-].[La+3].[La+3]` [LA 500, lanthanum carbonate tetrahydrate], the “Effect on bone resorption / bone resorbing activity of mature osteoclasts, in words” value ([1]; LA number = ng/ml lanthanum, lanthanum (III) ion = any of the concentrations tested (100-15000 ng/ml), bafilomycin Al 10 nM) was “dose-dependent inhibition of bone resorption”, the “Relative medium CrossLaps amounts per osteoclast, replicates 1-6” value [1] was 1.04 and 0.58 and 1.38 and 0.75 and 0.88 and 0.63 and the “Relative medium CrossLaps amounts per osteoclast, Mean ± SD” value ([1]; LA number = ng/ml lanthanum) was 0.88 ± 0.30. The “Relative medium CrossLaps amounts per osteoclasts, Mean ± SD” value ([1]; LA number = ng/ml lanthanum) was 0.88 ± 0.65, the “Relative medium CrossLaps amounts per osteoclasts, replicates 1-6” value ([1]; LA number = ng/ml lanthanum) was 0.50 (2×) and 2.14 and 1.03 and 0.47 and 0.63 and the “Combined results on bone resorption (relative medium CrossLaps per osteoclast), Mean ± SD” value ([1]; LA number = ng/ml lanthanum) was 0.88 ± 0.48. The “Effect on bone formation activity of mature osteoblasts, in words” value [2] was “stimulate bone formation”, the “Calcium deposition, Mean ± SD” value ([2]; first bone formation assay) was 0.77 ± 0.54 mmol/L and the “Calcium deposition, replicates 1-6” value ([2]; first bone formation assay) was 0.44 mmol/L and 0.15 mmol/L and 1.32 mmol/L and 0.27 mmol/L and 1.31 mmol/L and 1.10 mmol/L. For the same molecule, the “Calcium deposition, Mean ± SD” value [2, 3] was 0.02 ± 0.05 mmol/L, the “Calcium deposition, replicates 1-4” value [2, 3] was 0 mmol/L (3×) and 0.09 mmol/L and the “Calcium deposition, Mean ± SD” value ([2]; second bone formation assay) was 0.62 ± 0.61 mmol/L. For the same molecule, the “Calcium deposition, replicates 1-8” value ([2]; second bone formation assay) was 0 mmol/L and 0.02 mmol/L and 0.46 mmol/L and 1.17 mmol/L and the “Combined results on bone formation activity of mature osteoblasts (calcium released), Mean ± SD” value [2] was 0.68 ± 0.56 mmol/L.
`O.O.O.O.O=C([O-])[O-].O=C([O-])[O-].O=C([O-])[O-].[La+3].[La+3]` [LA 100, lanthanum carbonate tetrahydrate] was tested, and the “Relative medium CrossLaps amounts per osteoclast, replicates 1-6” value [1] was 0.57 and 0.56 and 1.13 and 0.78 and 0.71 (2×), the “Relative medium CrossLaps amounts per osteoclast, Mean ± SD” value ([1]; LA number = ng/ml lanthanum) was 0.74 ± 0.21 and the “Relative medium CrossLaps amounts per osteoclasts, Mean ± SD” value ([1]; LA number = ng/ml lanthanum) was 0.74 ± 0.21. The “Relative medium CrossLaps amounts per osteoclasts, replicates 1-6” value ([1]; LA number = ng/ml lanthanum) was 0.38 and 0.75 and 0.78 and 0.94 and 0.67 and 0.96, the “Combined results on bone resorption (relative medium CrossLaps per osteoclast), Mean ± SD” value ([1]; LA number = ng/ml lanthanum) was 0.74 ± 0.20 and the “Effect on bone formation activity of mature osteoblasts, in words” value [2] was “activate both bone formation and osteoblast differentiation”. For the same molecule, the “Calcium deposition, Mean ± SD” value ([2]; first bone formation assay) was 0.11 ± 0.11 mmol/L, the “Calcium deposition, replicates 1-6” value ([2]; first bone formation assay) was 0.04 mmol/L and 0.17 mmol/L and 0.01 mmol/L and 0.27 mmol/L and 0 mmol/L and 0.14 mmol/L and the “Calcium deposition, Mean ± SD” value [2, 3] was 0.00 ± 0.00 mmol/L. For the same molecule, the “Calcium deposition, replicates 1-4” value [2, 3] was 0 mmol/L, the “Calcium deposition, Mean ± SD” value ([2]; second bone formation assay) was 0.08 ± 0.11 mmol/L and the “Calcium deposition, replicates 1-8” value ([2]; second bone formation assay) was 0 mmol/L (4×) and 0.28 mmol/L and 0.14 mmol/L. The “Combined results on bone formation activity of mature osteoblasts (calcium released), Mean ± SD” value [2] was 0.09 ± 0.10 mmol/L.
